The values that follow come from ChEMBL document CHEMBL4396870, “Pharmacological Chaperones for the Treatment of α-Mannosidosis” (J Med Chem, 2019).

In assay [1] the target is Beta-galactosidase (Escherichia coli) (UniProt Q8VNN2). Kind of assay: Inhibition of Escherichia coli beta-galactosidase assessed as residual hydrolytic activity up to 2 mM after 10 to 30 mins by spectrophotometric analysis.
For another assay, the system named is Helix pomatia. Description: Inhibition of Helix pomatia beta-mannosidase assessed as residual hydrolytic activity up to 2 mM after 10 to 30 mins by spectrophotometric analysis.
Another assay has as its system Aspergillus niger. Kind of assay: Inhibition of Aspergillus niger amyloglucosidase assessed as residual hydrolytic activity up to 2 mM after 10 to 30 mins by spectrophotometric analysis.
Assay [2] addresses Alpha-galactosidase (Coffea arabica) (UniProt Q42656). Kind of assay: Inhibition of green coffee alpha-galactosidase assessed as residual hydrolytic activity up to 2 mM after 10 to 30 mins by spectrophotometric analysis.
Assay [3] has as its system Saccharomyces cerevisiae. Description: Inhibition of yeast alpha-glucosidase assessed as residual hydrolytic activity up to 2 mM after 10 to 30 mins by spectrophotometric analysis.
Assay [4] deals with Saccharomyces cerevisiae. Kind of assay: Inhibition of yeast isomaltase assessed as residual hydrolytic activity up to 2 mM after 10 to 30 mins by spectrophotometric analysis.
The nature of assay [5]: Inhibition of bovine liver beta-glucosidase assessed as residual hydrolytic activity after 10 to 30 mins by spectrophotometric analysis. Also on record: species or system Bos taurus.
For another assay, the target named is T1, Alpha-mannosidase (Canavalia ensiformis, UniProt C0HJB3).
T1 sequence (C0HJB3 whole entry): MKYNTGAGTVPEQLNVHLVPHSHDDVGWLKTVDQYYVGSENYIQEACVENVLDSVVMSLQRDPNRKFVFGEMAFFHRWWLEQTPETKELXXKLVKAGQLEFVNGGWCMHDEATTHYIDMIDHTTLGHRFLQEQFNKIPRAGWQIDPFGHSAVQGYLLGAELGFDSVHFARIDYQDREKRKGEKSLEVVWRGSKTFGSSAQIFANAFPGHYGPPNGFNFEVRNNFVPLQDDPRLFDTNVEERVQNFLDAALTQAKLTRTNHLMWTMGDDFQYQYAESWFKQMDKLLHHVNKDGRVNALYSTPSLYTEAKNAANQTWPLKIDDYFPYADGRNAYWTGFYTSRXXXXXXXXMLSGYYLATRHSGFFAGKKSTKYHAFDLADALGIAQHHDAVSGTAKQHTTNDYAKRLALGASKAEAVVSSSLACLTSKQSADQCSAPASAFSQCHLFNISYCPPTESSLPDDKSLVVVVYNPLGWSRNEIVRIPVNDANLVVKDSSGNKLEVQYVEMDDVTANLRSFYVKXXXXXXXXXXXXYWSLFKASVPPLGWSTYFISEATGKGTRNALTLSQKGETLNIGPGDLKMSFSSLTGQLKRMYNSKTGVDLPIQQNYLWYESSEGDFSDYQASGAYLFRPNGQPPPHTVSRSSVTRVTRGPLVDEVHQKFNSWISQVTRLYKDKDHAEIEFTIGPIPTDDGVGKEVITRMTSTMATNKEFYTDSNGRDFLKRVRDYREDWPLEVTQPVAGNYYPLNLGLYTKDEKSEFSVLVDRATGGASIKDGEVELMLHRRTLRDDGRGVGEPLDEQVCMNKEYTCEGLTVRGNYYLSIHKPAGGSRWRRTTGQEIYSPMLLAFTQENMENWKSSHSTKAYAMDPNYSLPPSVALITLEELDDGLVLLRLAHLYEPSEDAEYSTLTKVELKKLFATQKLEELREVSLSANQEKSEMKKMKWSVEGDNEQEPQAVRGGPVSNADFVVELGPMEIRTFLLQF
Kind of assay: Inhibition of jack bean Lysosomal alpha-mannosidase assessed as residual hydrolytic activity after 10 to 30 mins by spectrophotometric analysis.

The nature of assay [6]: Inhibition of almond beta-glucosidase assessed as residual hydrolytic activity after 10 to 30 mins by spectrophotometric analysis. Also on record: species or system Prunus dulcis.
A short description of assay [7]: Inhibition of Helix pomatia beta-mannosidase assessed as residual hydrolytic activity after 10 to 30 mins by spectrophotometric analysis. The note with it: read-out: Ki.

pKi: −log10 of the molar value. Calls of active or inactive are those of the source. The calls are words filed in the database; no cut-off is given here.

Sequence of Alpha-galactosidase (Coffea arabica) (Q42656 16-378 limits assumed): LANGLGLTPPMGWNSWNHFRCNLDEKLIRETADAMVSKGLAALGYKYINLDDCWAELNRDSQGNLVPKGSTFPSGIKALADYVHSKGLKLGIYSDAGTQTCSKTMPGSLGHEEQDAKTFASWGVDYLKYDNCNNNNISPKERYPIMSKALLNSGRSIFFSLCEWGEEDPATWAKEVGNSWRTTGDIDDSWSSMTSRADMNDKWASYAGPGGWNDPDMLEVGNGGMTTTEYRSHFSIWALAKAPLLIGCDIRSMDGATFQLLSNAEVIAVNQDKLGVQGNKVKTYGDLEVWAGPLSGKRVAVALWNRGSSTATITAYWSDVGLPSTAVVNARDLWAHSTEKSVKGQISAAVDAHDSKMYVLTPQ
Sequence of Beta-galactosidase (Escherichia coli) (Q8VNN2 whole entry, looked up): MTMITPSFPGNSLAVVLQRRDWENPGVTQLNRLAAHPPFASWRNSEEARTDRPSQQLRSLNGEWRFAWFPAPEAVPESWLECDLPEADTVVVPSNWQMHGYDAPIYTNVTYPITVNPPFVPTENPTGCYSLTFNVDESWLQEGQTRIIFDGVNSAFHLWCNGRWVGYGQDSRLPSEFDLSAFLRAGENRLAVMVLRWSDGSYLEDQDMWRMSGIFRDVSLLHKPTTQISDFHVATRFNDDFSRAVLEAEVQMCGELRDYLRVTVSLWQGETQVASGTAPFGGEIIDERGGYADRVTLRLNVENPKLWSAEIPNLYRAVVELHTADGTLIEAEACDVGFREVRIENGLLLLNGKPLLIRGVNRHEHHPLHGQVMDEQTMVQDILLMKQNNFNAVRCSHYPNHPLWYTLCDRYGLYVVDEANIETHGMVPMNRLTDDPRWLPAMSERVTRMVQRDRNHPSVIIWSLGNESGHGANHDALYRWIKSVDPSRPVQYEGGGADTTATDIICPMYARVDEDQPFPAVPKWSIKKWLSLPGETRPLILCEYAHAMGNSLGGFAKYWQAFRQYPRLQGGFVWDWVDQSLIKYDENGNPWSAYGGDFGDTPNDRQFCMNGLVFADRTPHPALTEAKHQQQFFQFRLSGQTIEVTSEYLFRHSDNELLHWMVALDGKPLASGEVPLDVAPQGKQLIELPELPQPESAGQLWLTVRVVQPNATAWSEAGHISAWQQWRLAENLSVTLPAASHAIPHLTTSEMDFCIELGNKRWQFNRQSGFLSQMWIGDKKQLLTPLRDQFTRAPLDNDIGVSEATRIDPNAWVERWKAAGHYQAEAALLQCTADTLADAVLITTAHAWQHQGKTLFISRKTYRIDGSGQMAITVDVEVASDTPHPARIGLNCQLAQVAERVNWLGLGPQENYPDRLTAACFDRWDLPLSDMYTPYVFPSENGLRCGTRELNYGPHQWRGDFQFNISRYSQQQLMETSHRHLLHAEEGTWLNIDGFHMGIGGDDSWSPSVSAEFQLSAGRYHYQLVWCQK

Consider `O=C1OC[C@@H]2[C@@H](O)[C@H](O)[C@H](O)[C@@H](NCCCCCCn3cc(COC[C@H]4O[C@@H]5O[C@H]6[C@H](O)[C@@H](OCc7cn(CCCCCCN[C@@H]8[C@@H](O)[C@@H](O)[C@H](O)[C@H]9COC(=O)N98)nn7)[C@@H](O[C@H]7[C@H](O)[C@@H](OCc8cn(CCCCCCN[C@@H]9[C@@H](O)[C@@H](O)[C@H](O)[C@H]%10COC(=O)N%109)nn8)[C@@H](O[C@H]8[C@H](O)[C@@H](OCc9cn(CCCCCCN[C@@H]%10[C@@H](O)[C@@H](O)[C@H](O)[C@H]%11COC(=O)N%11%10)nn9)[C@@H](O[C@H]9[C@H](O)[C@@H](OCc%10cn(CCCCCCN[C@@H]%11[C@@H](O)[C@@H](O)[C@H](O)[C@H]%12COC(=O)N%12%11)nn%10)[C@@H](O[C@H]%10[C@H](O)[C@@H](OCc%11cn(CCCCCCN[C@@H]%12[C@@H](O)[C@@H](O)[C@H](O)[C@H]%13COC(=O)N%13%12)nn%11)[C@@H](O[C@H]%11[C@H](O)[C@@H](OCc%12cn(CCCCCCN[C@@H]%13[C@@H](O)[C@@H](O)[C@H](O)[C@H]%14COC(=O)N%14%13)nn%12)[C@@H](O[C@H]4[C@H](O)[C@H]5OCc4cn(CCCCCCN[C@@H]5[C@@H](O)[C@@H](O)[C@H](O)[C@H]%12COC(=O)N%125)nn4)O[C@@H]%11COCc4cn(CCCCCCN[C@@H]5[C@@H](O)[C@@H](O)[C@H](O)[C@H]%11COC(=O)N%115)nn4)O[C@@H]%10COCc4cn(CCCCCCN[C@@H]5[C@@H](O)[C@@H](O)[C@H](O)[C@H]%10COC(=O)N%105)nn4)O[C@@H]9COCc4cn(CCCCCCN[C@@H]5[C@@H](O)[C@@H](O)[C@H](O)[C@H]9COC(=O)N95)nn4)O[C@@H]8COCc4cn(CCCCCCN[C@@H]5[C@@H](O)[C@@H](O)[C@H](O)[C@H]8COC(=O)N85)nn4)O[C@@H]7COCc4cn(CCCCCCN[C@@H]5[C@@H](O)[C@@H](O)[C@H](O)[C@H]7COC(=O)N75)nn4)O[C@@H]6COCc4cn(CCCCCCN[C@@H]5[C@@H](O)[C@@H](O)[C@H](O)[C@H]6COC(=O)N65)nn4)nn3)N12`, for which the inhibition result (in assay [1]; with Aspergillus niger; in assay [2]; in the assay on Saccharomyces cerevisiae [3]; in the assay on Saccharomyces cerevisiae [4]) was “Active” in each case. The outcome with Helix pomatia was Active.

Consider `N[C@@H]1[C@@H](O)[C@@H](O)[C@H](O)[C@H]2COC(=O)N12`, for which the pKi was 3.70 to 4.70 in [5], 5.15 at Alpha-mannosidase, 3.70 to 4.70 in [6] and 3.70 to 4.70 in [7].

The pKi is the negative decadic logarithm of the Ki, by convention in mol/L.
